# Active and inactive are the calls of the source. The rule behind the calls is not given here.
# Experiments:
# Mus musculus [1] = assay: Antipsychotic activity in mouse at 30 mg/kg, ip administered 15 mins prior to testing by SmartCube automated system based method relative to standard compound; assay type: functional
# Mus musculus [2] = assay: Antipsychotic activity in ip dosed mouse administered 15 mins prior to testing by SmartCube automated system based method; assay type: functional; details: for minimal effective dose: Mus musculus, ip, read-out: MED
# [3] = Chemical stability of the compound in 20 mM NH4Ac buffer solution at pH 7.1 after 96 hrs by HPLC analysis; assay type: physicochemical; details: pH 7.1, 96 h
# [4] = Chemical stability of the compound in 0.01 M HCl at pH 2 after 96 hrs by HPLC analysis; assay type: physicochemical; details: buffer, pH 2, 96 h
# Liver microsome [5] = assay: Drug metabolism in human liver microsomes assessed as formation of 4-(3,4-dimethylthiophen-2-yl)pyrimidine at 3 uM in presence of NADPH by LC-MS/MS analysis; assay type: ADME
# [6] = Drug metabolism in mouse liver microsomes assessed as formation of 4-(3,4-dimethylthiophen-2-yl)pyrimidine at 3 uM in presence of NADPH by LC-MS/MS analysis; assay type: ADME
# Cytochrome P450 2D6 = Cytochrome P450 2D6 (Homo sapiens, UniProt P10635); assay: Inhibition of CYP2D6 in human liver microsomes assessed as reduction in dextromethorphan o-demethylation by LC-MS/MS analysis; assay type: ADME
# [7] = biological target: Sodium-dependent noradrenaline transporter (Homo sapiens) (UniProt P23975); assay: Displacement of [3H]nisoxetine from human recombinant norepinephrine transporter expressed in CHO cells at 10 uM after 120 mins by scintillation counting analysis; assay type: cell-based
# Mus musculus [8] = assay: Antipsychotic activity in C57Bl/6J mouse model of schizophrenia assessed as increase in prepulse inhibition of acoustic startle at 3 to 10 mg/kg, po administered 30 mins prior to testing relative to vehicle-treated control; assay type: functional, organism-based
# [9] = Half life in mouse liver microsomes at 3 uM in presence of NADPH by LC-MS/MS analysis; assay type: ADME
# CYP1A = CYP1A (Homo sapiens, UniProt P04798+P05177); assay: Inhibition of CYP1A in human liver microsomes assessed as reduction in ethoxyresorufin o-deethylation by fluorescence assay; details: probe ethoxyresorufin (O-deethylation)
# Cytochrome P450 3A4 = Cytochrome P450 3A4 (Homo sapiens, UniProt P08684); assay: Inhibition of CYP3A4 in human liver microsomes assessed as reduction in midazolam 1-hydroxylation/testosterone 6beta-hydroxylation by LC-MS/MS analysis; assay type: ADME
# Mus musculus [10] = assay: Antipsychotic-like activity in C57Bl/6J mouse model of schizophrenia assessed as reversal of phencyclidine-induced locomotor activity at 3 to 30 mg/kg, po dosed 30 mins before administration of PCP measured for 60 mins by open field test; assay type: functional, organism-based
# [11] = biological target: 5-hydroxytryptamine receptor 6 (Homo sapiens) (UniProt P50406); assay: Displacement of [3H]LSD from human recombinant 5-HT6 receptor expressed in CHO cells at 10 uM after 120 mins by scintillation counting analysis; assay type: cell-based
# Mus musculus [12] = assay: Effect on basal locomotor activity in C57Bl/6J mouse at 3 mg/kg, po; assay type: ADME, organism-based; details: in vivo
# [13] = biological target: T1, 5-hydroxytryptamine receptor 2A (Homo sapiens, UniProt P28223); assay: Displacement of [3H]ketanserin from human recombinant 5-HT2A receptor expressed in HEK293 cells at 10 uM after 60 mins by scintillation counting analysis; assay type: cell-based
# [14] = biological target: Adrenergic receptor alpha-1 (Rattus norvegicus) (UniProt P15823+P23944+P43140); assay: Displacement of [3H]prazosin from rat cerebral cortex adrenergic alpha1 receptor at 10 uM after 60 mins by scintillation counting analysis; assay type: tissue-based
# Cytochrome P450 2C19 = Cytochrome P450 2C19 (Homo sapiens, UniProt P33261); assay: Inhibition of CYP2C19 in human liver microsomes assessed as reduction in S-mephenytoin 4-hydroxylation by LC-MS/MS analysis; assay type: ADME
# [15] = Fraction unbound in human plasma at 5 uM by LC-MS/MS based equilibrium dialysis method; assay type: ADME, cell-free
# [16] = biological target: Sodium-dependent serotonin transporter (Homo sapiens) (UniProt P31645); assay: Displacement of [3H]imipramine from human recombinant 5-HT transporter expressed in CHO cells at 10 uM after 60 mins by scintillation counting analysis; assay type: cell-based
# [17] = Half life in human liver microsomes at 3 uM in presence of NADPH by LC-MS/MS analysis; assay type: ADME
# [18] = biological target: D(2) dopamine receptor (Homo sapiens) (UniProt P14416); assay: Displacement of [3H]methyl-spiperone from human recombinant D2 receptor expressed in HEK293 cells at 10 uM after 60 mins by scintillation counting analysis; assay type: cell-based
# [19] = biological target: 5-hydroxytryptamine receptor 3A (Homo sapiens) (UniProt P46098); assay: Displacement of [3H]BRL 43694 from human recombinant 5-HT3 receptor expressed in CHO cells at 10 uM after 120 mins by scintillation counting analysis; assay type: cell-based
# [20] = biological target: D(1A) dopamine receptor (Homo sapiens) (UniProt P21728); assay: Displacement of [3H]SCH 23390 from human recombinant D1 receptor expressed in CHO cells at 10 uM after 60 mins by scintillation counting analysis; assay type: cell-based
# [21] = Fraction unbound in mouse plasma at 5 uM by LC-MS/MS based equilibrium dialysis method; assay type: ADME, cell-free
# [22] = biological target: Histamine H1 receptor (Homo sapiens) (UniProt P35367); assay: Displacement of [3H]pyrilamine from human recombinant H1 receptor expressed in HEK293 cells at 10 uM after 60 mins by scintillation counting analysis; assay type: cell-based
# [23] = biological target: T1, 5-hydroxytryptamine receptor 2A; assay: Antagonist activity at 5HT2A (unknown origin)
# [24] = biological target: Adrenergic receptor alpha-2 (Rattus norvegicus) (UniProt P22086+P19328+P22909); assay: Displacement of [3H]RX 821002 from rat cerebral cortex adrenergic alpha2 receptor at 10 uM after 60 mins by scintillation counting analysis; assay type: tissue-based
# [25] = biological target: 5-hydroxytryptamine receptor 2B (Homo sapiens) (UniProt P41595); assay: Displacement of [3H]mesulergine from human recombinant 5-HT2B receptor expressed in CHO cells at 10 uM after 60 mins by scintillation counting analysis; assay type: cell-based
# [26] = Solubility of the compound at pH 7.4; assay type: physicochemical; details: buffer
# Mus musculus [27] = assay: Effect on basal locomotor activity in C57Bl/6J mouse at 10 to 30 mg/kg, po; assay type: ADME, organism-based; details: in vivo
# [28] = Drug metabolism in mouse liver microsomes assessed as formation of 4-(2-methylbenzo[b]thiophen-3-yl)pyrimidineat 3 uM in presence of NADPH by LC-MS/MS analysis; assay type: ADME
# [29] = biological target: Sodium-dependent dopamine transporter (Homo sapiens) (UniProt Q01959); assay: Displacement of [3H]BTCP from human recombinant dopamine transporter expressed in CHO cells at 10 uM after 120 mins by scintillation counting analysis; assay type: cell-based
# Liver microsome [30] = assay: Drug metabolism in human liver microsomes assessed as formation of 4-(2-methylbenzo[b]thiophen-3-yl)pyrimidineat 3 uM in presence of NADPH by LC-MS/MS analysis; assay type: ADME
# [31] = biological target: Voltage-gated inwardly rectifying potassium channel KCNH2 (Homo sapiens, UniProt Q12809); assay: Inhibition of human ERG; details: human
# [32] = Half life in rat liver microsomes at 3 uM in presence of NADPH by LC-MS/MS analysis; assay type: ADME
# Cytochrome P450 2C9 = Cytochrome P450 2C9 (Homo sapiens, UniProt P11712); assay: Inhibition of CYP2C9 in human liver microsomes assessed as reduction in tolbutamide 4-hydroxylation by LC-MS/MS analysis; assay type: ADME
# Mus musculus [33] = assay: Antipsychotic activity in mouse at 10 mg/kg, ip administered 15 mins prior to testing by SmartCube automated system based method relative to standard compound; assay type: functional, organism-based
# [34] = biological target: 5-hydroxytryptamine receptor 7 (Homo sapiens) (UniProt P34969); assay: Displacement of [3H]LSD from human recombinant 5-HT7 receptor expressed in CHO cells at 10 uM after 120 mins by scintillation counting analysis; assay type: cell-based
# [35] = biological target: D(2) dopamine receptor (Homo sapiens) (UniProt P14416); assay: Displacement of [3H]methyl-spiperone from human recombinant D2 receptor expressed in HEK293 cells at 30 uM after 60 mins by scintillation counting analysis; assay type: cell-based
# T1 sequence (P28223 whole entry): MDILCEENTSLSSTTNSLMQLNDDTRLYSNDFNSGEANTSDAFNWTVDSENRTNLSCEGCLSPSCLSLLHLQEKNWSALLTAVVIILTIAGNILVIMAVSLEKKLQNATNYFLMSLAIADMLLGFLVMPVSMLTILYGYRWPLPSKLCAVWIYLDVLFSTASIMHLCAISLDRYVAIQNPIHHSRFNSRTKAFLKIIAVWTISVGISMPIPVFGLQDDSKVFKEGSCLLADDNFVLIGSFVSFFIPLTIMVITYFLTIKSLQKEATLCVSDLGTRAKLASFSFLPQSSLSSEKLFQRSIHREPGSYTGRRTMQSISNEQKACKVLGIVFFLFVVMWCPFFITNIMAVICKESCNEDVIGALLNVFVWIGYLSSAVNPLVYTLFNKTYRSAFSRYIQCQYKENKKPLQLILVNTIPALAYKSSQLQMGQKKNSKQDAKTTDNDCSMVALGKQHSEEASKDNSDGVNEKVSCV
# Chain of D(2) dopamine receptor (Homo sapiens) (P14416 whole entry): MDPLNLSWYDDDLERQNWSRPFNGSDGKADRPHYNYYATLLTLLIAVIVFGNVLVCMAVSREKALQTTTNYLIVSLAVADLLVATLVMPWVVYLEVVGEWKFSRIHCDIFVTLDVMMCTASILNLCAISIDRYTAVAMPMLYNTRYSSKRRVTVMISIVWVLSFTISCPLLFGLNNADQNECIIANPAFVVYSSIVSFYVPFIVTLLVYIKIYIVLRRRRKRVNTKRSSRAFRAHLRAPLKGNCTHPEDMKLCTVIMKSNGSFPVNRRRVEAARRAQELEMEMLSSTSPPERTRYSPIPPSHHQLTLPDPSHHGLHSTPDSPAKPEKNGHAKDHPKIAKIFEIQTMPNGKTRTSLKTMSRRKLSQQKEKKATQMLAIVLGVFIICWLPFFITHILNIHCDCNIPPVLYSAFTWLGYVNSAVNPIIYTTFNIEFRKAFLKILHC
# Chain of Voltage-gated inwardly rectifying potassium channel KCNH2 (Q12809 whole entry): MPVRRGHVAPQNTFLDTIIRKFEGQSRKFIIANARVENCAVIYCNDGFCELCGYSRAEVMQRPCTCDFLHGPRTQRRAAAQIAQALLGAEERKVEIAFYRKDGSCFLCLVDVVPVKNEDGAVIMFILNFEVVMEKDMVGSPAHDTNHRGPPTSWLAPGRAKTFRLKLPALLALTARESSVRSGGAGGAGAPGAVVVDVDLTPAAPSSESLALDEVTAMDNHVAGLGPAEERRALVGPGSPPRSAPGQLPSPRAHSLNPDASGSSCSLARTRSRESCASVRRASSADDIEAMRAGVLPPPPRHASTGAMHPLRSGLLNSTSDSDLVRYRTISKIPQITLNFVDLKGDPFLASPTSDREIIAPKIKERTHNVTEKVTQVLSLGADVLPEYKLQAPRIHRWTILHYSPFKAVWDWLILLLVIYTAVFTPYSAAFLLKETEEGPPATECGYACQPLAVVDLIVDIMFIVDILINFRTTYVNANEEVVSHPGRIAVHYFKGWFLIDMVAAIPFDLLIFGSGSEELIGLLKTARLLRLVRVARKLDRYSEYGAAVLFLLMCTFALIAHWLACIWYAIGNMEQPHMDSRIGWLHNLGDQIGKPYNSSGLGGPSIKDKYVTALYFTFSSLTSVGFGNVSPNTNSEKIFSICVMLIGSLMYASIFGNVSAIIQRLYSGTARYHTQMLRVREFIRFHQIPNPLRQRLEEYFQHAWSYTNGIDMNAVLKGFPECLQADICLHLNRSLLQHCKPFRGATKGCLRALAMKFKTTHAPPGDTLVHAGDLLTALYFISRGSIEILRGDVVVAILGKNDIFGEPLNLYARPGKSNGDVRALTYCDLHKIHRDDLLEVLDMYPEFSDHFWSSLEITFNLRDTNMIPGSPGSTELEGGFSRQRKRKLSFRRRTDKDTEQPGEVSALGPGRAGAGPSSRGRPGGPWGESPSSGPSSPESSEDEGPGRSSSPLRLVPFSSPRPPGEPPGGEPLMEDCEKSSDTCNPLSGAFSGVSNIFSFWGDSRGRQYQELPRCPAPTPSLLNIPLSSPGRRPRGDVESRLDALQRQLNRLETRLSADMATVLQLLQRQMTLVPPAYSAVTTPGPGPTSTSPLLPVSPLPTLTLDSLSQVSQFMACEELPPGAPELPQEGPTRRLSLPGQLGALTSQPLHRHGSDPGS
# Chain of Sodium-dependent serotonin transporter (Homo sapiens) (P31645 whole entry, looked up): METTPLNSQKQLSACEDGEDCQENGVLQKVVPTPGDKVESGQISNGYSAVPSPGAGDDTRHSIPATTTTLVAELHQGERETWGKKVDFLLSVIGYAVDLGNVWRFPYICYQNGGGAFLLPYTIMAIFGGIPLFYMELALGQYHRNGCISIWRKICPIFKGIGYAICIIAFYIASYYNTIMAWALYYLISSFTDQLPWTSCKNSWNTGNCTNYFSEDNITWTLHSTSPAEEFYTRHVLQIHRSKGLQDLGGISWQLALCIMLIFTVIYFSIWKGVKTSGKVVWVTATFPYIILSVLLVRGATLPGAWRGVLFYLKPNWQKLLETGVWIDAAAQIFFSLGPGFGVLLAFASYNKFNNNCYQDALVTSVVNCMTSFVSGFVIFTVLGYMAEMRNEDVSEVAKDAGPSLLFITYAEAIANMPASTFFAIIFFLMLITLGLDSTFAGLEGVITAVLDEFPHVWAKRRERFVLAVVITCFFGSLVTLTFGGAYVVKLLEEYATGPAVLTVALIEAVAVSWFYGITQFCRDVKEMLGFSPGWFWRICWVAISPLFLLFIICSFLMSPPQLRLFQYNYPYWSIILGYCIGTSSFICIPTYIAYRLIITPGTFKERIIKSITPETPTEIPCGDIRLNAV
# Chain of 5-hydroxytryptamine receptor 6 (Homo sapiens) (P50406 whole entry): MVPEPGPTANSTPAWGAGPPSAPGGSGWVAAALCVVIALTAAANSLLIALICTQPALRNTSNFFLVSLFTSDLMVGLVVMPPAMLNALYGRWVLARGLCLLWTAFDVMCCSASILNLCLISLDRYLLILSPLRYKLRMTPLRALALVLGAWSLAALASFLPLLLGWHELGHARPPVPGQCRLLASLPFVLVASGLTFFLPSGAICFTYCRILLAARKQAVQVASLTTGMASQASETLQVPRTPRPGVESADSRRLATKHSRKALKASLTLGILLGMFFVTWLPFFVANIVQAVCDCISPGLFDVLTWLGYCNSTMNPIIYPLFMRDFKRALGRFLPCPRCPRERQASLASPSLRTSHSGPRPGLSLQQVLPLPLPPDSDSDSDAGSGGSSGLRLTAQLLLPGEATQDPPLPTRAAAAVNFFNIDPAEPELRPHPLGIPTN
# Chain of Cytochrome P450 2D6 (P10635 whole entry): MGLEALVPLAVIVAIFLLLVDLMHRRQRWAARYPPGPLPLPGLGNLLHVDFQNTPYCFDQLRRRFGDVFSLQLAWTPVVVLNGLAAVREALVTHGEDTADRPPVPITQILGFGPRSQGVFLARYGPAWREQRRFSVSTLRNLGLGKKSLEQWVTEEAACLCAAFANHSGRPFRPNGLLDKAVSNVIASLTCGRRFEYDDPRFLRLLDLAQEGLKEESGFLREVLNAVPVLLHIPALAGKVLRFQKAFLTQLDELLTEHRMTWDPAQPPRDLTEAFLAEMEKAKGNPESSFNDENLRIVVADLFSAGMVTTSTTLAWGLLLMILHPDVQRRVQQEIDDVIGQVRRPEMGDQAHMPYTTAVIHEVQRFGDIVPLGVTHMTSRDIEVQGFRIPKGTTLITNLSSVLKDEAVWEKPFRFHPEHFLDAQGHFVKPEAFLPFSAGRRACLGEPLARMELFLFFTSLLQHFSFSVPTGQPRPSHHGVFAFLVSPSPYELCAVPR
# Chain of Sodium-dependent noradrenaline transporter (Homo sapiens) (P23975 whole entry): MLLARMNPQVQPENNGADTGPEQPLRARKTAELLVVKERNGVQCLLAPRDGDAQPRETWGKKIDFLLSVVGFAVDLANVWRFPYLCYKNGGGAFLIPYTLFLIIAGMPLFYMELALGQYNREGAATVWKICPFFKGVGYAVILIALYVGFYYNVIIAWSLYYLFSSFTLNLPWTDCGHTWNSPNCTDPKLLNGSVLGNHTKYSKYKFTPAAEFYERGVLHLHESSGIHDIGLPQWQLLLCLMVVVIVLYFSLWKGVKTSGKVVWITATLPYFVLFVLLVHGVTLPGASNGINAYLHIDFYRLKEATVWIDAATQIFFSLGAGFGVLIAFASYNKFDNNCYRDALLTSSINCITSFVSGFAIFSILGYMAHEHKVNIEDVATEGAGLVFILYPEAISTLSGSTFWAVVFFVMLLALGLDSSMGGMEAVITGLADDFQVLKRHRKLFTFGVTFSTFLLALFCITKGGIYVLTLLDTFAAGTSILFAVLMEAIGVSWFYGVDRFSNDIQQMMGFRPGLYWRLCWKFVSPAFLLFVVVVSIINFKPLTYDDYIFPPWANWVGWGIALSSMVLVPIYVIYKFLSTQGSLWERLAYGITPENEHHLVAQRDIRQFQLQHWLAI
# Chain of Cytochrome P450 2C9 (P11712 whole entry): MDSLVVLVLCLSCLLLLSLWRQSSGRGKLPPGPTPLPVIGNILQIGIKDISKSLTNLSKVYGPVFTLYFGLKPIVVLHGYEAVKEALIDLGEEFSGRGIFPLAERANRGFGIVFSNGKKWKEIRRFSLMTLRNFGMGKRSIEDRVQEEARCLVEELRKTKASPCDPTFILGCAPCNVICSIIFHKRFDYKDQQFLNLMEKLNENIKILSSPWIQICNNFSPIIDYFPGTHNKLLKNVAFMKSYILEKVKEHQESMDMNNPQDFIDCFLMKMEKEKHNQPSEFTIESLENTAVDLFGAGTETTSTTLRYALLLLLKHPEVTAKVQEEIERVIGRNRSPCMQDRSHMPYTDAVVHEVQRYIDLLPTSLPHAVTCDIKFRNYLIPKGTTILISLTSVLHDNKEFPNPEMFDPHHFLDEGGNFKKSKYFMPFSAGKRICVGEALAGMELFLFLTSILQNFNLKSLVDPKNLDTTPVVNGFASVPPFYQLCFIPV
compound,measurement,setting,value
Clc1c(C2C=CN=CN2)sc2ccccc12 (stereo unspecified),Activity,Mus musculus [1],Active
Cl.Fc1ccc(-c2ccc(C3C=CN=CN3)s2)cc1 (stereo unspecified),minimal effective dose,Mus musculus [2],3 mg/kg
CC1=NC=CC(c2c(C)sc3ccccc23)N1.Cl (stereo unspecified),minimal effective dose,Mus musculus [2],30 mg/kg
Cc1sc2c(Cl)cccc2c1C1C=CN=CN1.Cl (stereo unspecified),minimal effective dose,Mus musculus [2],30 mg/kg
Cc1csc(C2C=CN=CN2)c1C.Cl (stereo in doubt; 12a),Stability,[3],Unstable
same,Stability,[4],Stable
same,Drug metabolism,Liver microsome [5],metabolite_notdetected
same,MED,Mus musculus [2],3 mg/kg
same,Drug metabolism,[6],metabolite_notdetected
Cc1sc2ccccc2c1C1C=CN=CN1.Cl (stereo unspecified),minimal effective dose,Mus musculus [2],3 mg/kg
Cc1sc2c(F)cccc2c1C1C=CN=CN1.Cl (stereo unspecified),minimal effective dose,Mus musculus [2],10 mg/kg
Cc1csc(C2C=CN=CN2)c1C.Cl (stereo in doubt; 12b),MED,Mus musculus [2],30 mg/kg
Cc1sc2ccccc2c1[C@@H]1C=CN=CN1,Stability,[3],Stable
same,IC50,Cytochrome P450 2D6,3.1 µM
same,inhibition,[7],51%
same,Stability,[4],Stable
same,Activity,Mus musculus [8],Active
same,half-life at 3 µM,[9],4.03 h
same,IC50,CYP1A,6.9 µM
same,IC50,Cytochrome P450 3A4,11 µM
same,Activity,Mus musculus [10],Active
same,inhibition,[11],61%
same,Activity,Mus musculus [12],Non-toxic
same,inhibition,[13],99%
same,inhibition,[14],88%
same,IC50,Cytochrome P450 2C19,25 µM
same,fraction unbound at 5 µM,[15],0.3
same,inhibition,[16],94%
same,half-life at 3 µM,[17],2.28 h
same,inhibition,[18],0%
same,inhibition,[19],64%
same,inhibition,[20],77%
same,fraction unbound at 5 µM,[21],0.18
same,inhibition,[22],86%
same,IC50,[23],0.356 µM
same,inhibition,[24],97%
same,Activity,Mus musculus [1],Active
same,inhibition,[25],81%
same,solubility,[26],> 100 µg/mL
same,Activity,Mus musculus [27],Toxic
same,Drug metabolism,[28],metabolite_notdetected
same,inhibition,[29],78%
same,Drug metabolism,Liver microsome [30],metabolite_notdetected
same,IC50,[31],> 25 µM
same,half-life at 3 µM,[32],0.483 h
same,IC50,Cytochrome P450 2C9,6.9 µM
same,Activity,Mus musculus [33],Active
same,inhibition,[34],94%
Cc1sc2ccccc2c1C1C=CN=CN1C.Cl (stereo unspecified),minimal effective dose,Mus musculus [2],30 mg/kg
Cc1c(C2C=CN=CN2)sc2ccccc12 (stereo unspecified),Activity,Mus musculus [1],Active
Cc1sc2cccc(F)c2c1C1C=CN=CN1.Cl (stereo unspecified),minimal effective dose,Mus musculus [2],3 mg/kg
Cc1sc2c(c1C1C=CN=CN1)CCC2.Cl (stereo unspecified),minimal effective dose,Mus musculus [2],10 mg/kg
Cc1csc(C2C=CN=CN2)c1C (stereo unspecified),inhibition,[35],18%
same,Activity,Mus musculus [1],Active
Cc1sc2ccccc2c1C1NC(N)=NC=C1Cl.Cl (stereo unspecified),minimal effective dose,Mus musculus [2],30 mg/kg
Cc1sc2ccc(Cl)cc2c1C1C=CN=CN1.Cl (stereo unspecified),minimal effective dose,Mus musculus [2],3 mg/kg
